MIC data for eleven compounds are collected here from DBAASP.

Values after ≈ are worked out from the molar mass of the structure shown. A value given as a limit tells only on which side of the number the result lay.

Among the test systems are Micrococcus luteus; Escherichia coli; Listeria innocua; Enterobacter cloacae; Enterococcus faecalis; Leuconostoc lactis; Pseudomonas aeruginosa; Pasteurella multocida; Streptococcus uberis; Bacillus cereus; Acinetobacter baumannii; Staphylococcus aureus MR; Staphylococcus aureus; Escherichia coli UB1005.
What all share (test): ≥ marks a high value that may be exact or a test limit, other limits are often not marked, values filed in µg/mL are converted to µM
The subject of assay [1] is Staphylococcus aureus ATCC 29213.
Assay [2] concerns Staphylococcus aureus ATCC 25923.
For assay [3], the system named is Staphylococcus epidermidis.
The subject of assay [4] is Staphylococcus aureus ATCC BAA-1556.
Assay [5] has as its system Pseudomonas aeruginosa ATCC 27853.
The test system of assay [6] is Escherichia coli ATCC 25922.
Assay [7] concerns Acinetobacter baumannii ATCC 19606.
For assay [8], the system named is Candida albicans ATCC 90028.
Assay [9] concerns Salmonella enterica subsp. enterica serovar Pullorum C79-13.
Assay [10] deals with Staphylococcus epidermidis ATCC 12228.
Assay [11] has as its system Enterococcus faecalis ATCC 29212.
The test system of assay [12] is Bacillus subtilis CMCC 63501.
For assay [13], the system named is Salmonella enterica subsp. enterica serovar Typhimurium ATCC 14028.
Assay [14] concerns Staphylococcus aureus ATCC 43300.

What is called MIC is the least concentration at which growth counts as inhibited. Low readings indicate greater potency, high ones weaker potency. Turning to `CC[C@H](C)[C@H](NC(=O)[C@@H](NC(=O)[C@@H]1CCCN1C(=O)[C@H](C)NC(=O)[C@@H](NC(=O)[C@H](Cc1cnc[nH]1)NC(=O)[C@@H]1CCCN1C(=O)[C@H](CC(C)C)NC(=O)[C@H](CC(C)C)NC(=O)[C@H](Cc1cnc[nH]1)NC(=O)[C@H](CCCCN)NC(=O)[C@H](C)NC(=O)[C@@H](NC(=O)[C@H](CO)NC(=O)CNC(=O)[C@H](CC(C)C)NC(=O)[C@@H](NC(=O)[C@H](CCCCN)NC(=O)[C@H](Cc1ccccc1)NC(=O)[C@H](CC(C)C)NC(=O)CN)C(C)C)C(C)C)C(C)C)[C@@H](C)CC)C(=O)N[C@@H](C)C(=O)N[C@@H](CCC(=O)O)C(=O)N[C@@H](CCCCN)C(=O)N[C@@H](CC(C)C)C(N)=O` [GLFKVLGSVAKHLLPHVAPIIAEKL], the minimum inhibitory concentration (MIC) was 4.53 µM (≈ 12 µg/mL) in assay [1]; 9.43 µM (≈ 25 µg/mL) in the assay on Micrococcus luteus; more than 37.7 µM against Escherichia coli; 4.53 µM (≈ 12 µg/mL) in the assay on Listeria innocua; not below 37.7 µM against Enterobacter cloacae; not below 37.7 µM with Enterococcus faecalis. Further, the MIC in the assay on Leuconostoc lactis was 1.13 µM (≈ 3 µg/mL); in assay [2], 4.53 µM (≈ 12 µg/mL); in the assay on Pseudomonas aeruginosa, more than 37.7 µM; in assay [3] it was 4.53 µM (≈ 12 µg/mL); against Pasteurella multocida, 18.9 µM (≈ 50 µg/mL); against Streptococcus uberis it was 9.43 µM (≈ 25 µg/mL). In the assay on Bacillus cereus, this compound returned an MIC of 18.9 µM (≈ 50 µg/mL).

For `CC(C)C[C@H](NC(=O)[C@H](CC(C)C)NC(=O)[C@H](CC(C)C)NC(=O)[C@H](CC(C)C)NC(=O)[C@H](CC(C)C)NC(=O)[C@H](CC(C)C)NC(=O)[C@H](CC(C)C)NC(=O)[C@@H](N)CCCCN)C(=O)N[C@@H](CCCCN)C(N)=O` [KLLLLLLLK], the minimum inhibitory concentration (MIC) in assay [4] is not below 100 µM.

Turning to `CC[C@H](C)[C@H](NC(=O)[C@H](CCCN=C(N)N)NC(=O)[C@H](CCCCN)NC(=O)[C@@H](NC(=O)[C@@H](NC(=O)[C@H](CCCN=C(N)N)NC(=O)[C@@H](N)CCCCN)[C@@H](C)CC)C(C)C)C(=O)N[C@@H](CCCCN)C(=O)N[C@@H](CC(=O)O)C(=O)N[C@@H](Cc1ccccc1)C(=O)N[C@@H](CC(C)C)C(=O)N[C@@H](CCCN=C(N)N)C(=O)O` [KRIVKRIKDFLR], the MIC in [1] is 2.5 µM (≈ 3.93 µg/mL); against Acinetobacter baumannii it was not below 50.9 µM; in assay [5], 2.5 µM (≈ 3.93 µg/mL); in assay [6], 1.25 µM (≈ 1.96 µg/mL); in [2] it was not below 204 µM; in [7], not below 102 µM. Further, the MIC in the assay with Staphylococcus aureus MR is not below 204 µM; in assay [8], 2.5 µM (≈ 3.93 µg/mL).

Take `CC(C)C[C@H](NC(=O)[C@H](CC(C)C)NC(=O)[C@H](CC(C)C)NC(=O)[C@H](CCCCN)NC(=O)[C@H](CC(C)C)NC(=O)[C@H](CC(C)C)NC(=O)[C@H](CC(C)C)NC(=O)[C@H](CCCCN)NC(=O)[C@@H](N)CC(C)C)C(N)=O` [LKLLLKLLL]: in assay [4], the MIC was not below 100 µM.

Take `CC(C)C[C@H](NC(=O)[C@H](CCCCN)NC(=O)[C@H](CC(C)C)NC(=O)[C@H](CC(C)C)NC(=O)[C@H](CC(C)C)NC(=O)[C@H](CC(C)C)NC(=O)[C@H](CC(C)C)NC(=O)[C@@H](N)CC(C)C)C(=O)N[C@@H](CCCCN)C(N)=O` [LLLLLLKLK]: the MIC in assay [4] is not below 100 µM.

In turn, `CC[C@H](C)[C@H](NC(=O)[C@H](Cc1ccc(O)cc1)NC(=O)[C@H](CCCN=C(N)N)NC(=O)[C@H](CCCCN)NC(=O)[C@H](Cc1ccc(O)cc1)NC(=O)[C@@H](N)CC(C)C)C(=O)N[C@@H](CC(C)C)C(=O)N[C@@H](CCCN=C(N)N)C(=O)N[C@@H](CCCCN)C(=O)N[C@@H](Cc1ccccc1)C(=O)N[C@@H](CCCCN)C(=O)N[C@@H](Cc1ccccc1)C(=O)N[C@@H](CC(C)C)C(=O)N[C@@H](CCCCN)C(=O)N[C@@H](CCCCN)C(=O)N[C@@H](CCCCN)C(=O)N[C@@H](CC(C)C)C(=O)N[C@@H](CCCCN)C(=O)N[C@@H](CCCCN)C(=O)N[C@@H](CCCCN)C(N)=O` [LYKRYILRKFKFLKKKLKKK] had an MIC in the assay with Staphylococcus aureus MR of 24 µM (≈ 64 µg/mL).

Turning to `CC(C)C[C@H](NC(=O)[C@@H](N)CCCN=C(N)N)C(=O)N[C@@H](C)C(=O)N[C@@H](CCCN=C(N)N)C(=O)N[C@@H](CCCN=C(N)N)C(=O)N[C@H](C(=O)N[C@H](C(=O)N[C@@H](CCCN=C(N)N)C(=O)N[C@@H](CCCN=C(N)N)C(=O)N[C@H](C(=O)N[C@@H](C)C(=O)N[C@@H](CCCN=C(N)N)C(N)=O)C(C)C)C(C)C)C(C)C` [RLARRVVRRVAR], the minimal inhibitory concentration (MIC) in the assay with Staphylococcus aureus MR is not below 66.3 µM; in the assay with Staphylococcus aureus, more than 66.3 µM.

Take `C[C@H](NC(=O)[C@H](C)NC(=O)[C@H](CCCCN)NC(=O)[C@H](C)NC(=O)[C@H](C)NC(=O)[C@H](C)NC(=O)[C@H](CCCCN)NC(=O)[C@H](Cc1ccccc1)NC(=O)[C@@H](N)Cc1c[nH]c2ccccc12)C(=O)N[C@@H](C)C(=O)N[C@@H](CCCCN)C(=O)N[C@@H](Cc1ccccc1)C(=O)N[C@@H](Cc1c[nH]c2ccccc12)C(N)=O` [WFKAAAKAAAKFW]: the MIC in assay [1] turned out to be 8 µM (≈ 12 µg/mL); in assay [9] it was 8 µM (≈ 12 µg/mL); in assay [5], 16 µM (≈ 23.9 µg/mL); in assay [10] it was 16 µM (≈ 23.9 µg/mL); in [6] it was 4 µM (≈ 5.98 µg/mL); in assay [11] it was 32 µM (≈ 47.8 µg/mL). The minimum inhibitory concentration (MIC) in [12] was 8 µM (≈ 12 µg/mL); in [13] it was 32 µM (≈ 47.8 µg/mL); against Escherichia coli UB1005, 4 µM (≈ 5.98 µg/mL).

`CC(C)C[C@H](NC(=O)[C@H](CC(C)C)NC(=O)[C@H](CCCCN)NC(=O)[C@H](CC(C)C)NC(=O)[C@H](CC(C)C)NC(=O)[C@@H](N)Cc1c[nH]c2ccccc12)C(N)=O` [WLLKLL]: the minimum inhibitory concentration (MIC) in assay [4] is not below 100 µM.

Regarding `CC(=O)N[C@@H](Cc1c[nH]c2ccccc12)C(=O)N[C@@H](CCCN=C(N)N)C(=O)N[C@@H](CCCCN)C(=O)N[C@@H](CC(C)C)C(=O)N[C@@H](Cc1c[nH]c2ccccc12)C(=O)N[C@@H](CCCN=C(N)N)C(=O)NCC(=O)NCC(=O)N[C@@H](CC(C)C)C(=O)N[C@@H](CCCCN)C(=O)N[C@@H](CCCN=C(N)N)C(=O)N[C@@H](Cc1c[nH]c2ccccc12)C(=O)N[C@@H](CC(C)C)C(=O)N[C@@H](CCCCN)C(N)=O` [WRKLWRGGLKRWLK], the MIC in [9] was 2 µM (≈ 3.85 µg/mL); in [14] it was 4 µM (≈ 7.7 µg/mL); in [5], 8 µM (≈ 15.4 µg/mL); in assay [10] it was 16 µM (≈ 30.8 µg/mL); in assay [2], 8 µM (≈ 15.4 µg/mL); in assay [12] it was 8 µM (≈ 15.4 µg/mL). In addition, the MIC in [13] worked out at 8 µM (≈ 15.4 µg/mL); in the assay with Escherichia coli UB1005, 4 µM (≈ 7.7 µg/mL).

In [4], `CC(C)C[C@H](NC(=O)[C@H](Cc1c[nH]c2ccccc12)NC(=O)[C@H](Cc1c[nH]c2ccccc12)NC(=O)[C@H](CC(C)C)NC(=O)[C@H](CCCN=C(N)N)NC(=O)[C@H](Cc1c[nH]c2ccccc12)NC(=O)[C@H](CC(C)C)NC(=O)[C@H](Cc1c[nH]c2ccccc12)NC(=O)[C@@H](N)Cc1c[nH]c2ccccc12)C(N)=O` [WWLWRLWWL] returned a minimum inhibitory concentration (MIC) of 3.12 µM (≈ 4.51 µg/mL). In other words, the single-digit micromolar range.
